The target in assay [1] is ^3H-imipramine binding in brain tissue.
For assay [2], the system named is reserpine-induced hypothermia. Kind of assay: Antagonism of reserpine-induced hypothermia. Format: in vivo, mice. As to conditions: for minimal effective dose: Mus musculus, read-out: minimum effective dose (M.E.D.), antagonism of reserpine-induced hypothermia; for potency relative to Compound A in reversal of reserpine-induced hypothermia: compared with Compound A. The method, then:
37, 795-797 (1981); and antagonize reserpine induced hypothermia when tested in accordance with the procedure of Askew, Life Sci. 1, 725-730 (1963).
All mice received 5mg/kg reserpine s.c. 18 h prior to test compound.

In the next assay the target is muscarinic receptor. The following applies: read-out: Ki (^3H-QNB binding).
For assay [3], the target named is synaptosomal uptake of norepinephrine (^3H-NE). The experiment in a line: Inhibition of synaptosomal NE uptake.
Chain of synaptosomal uptake of norepinephrine (^3H-NE) (P23975 whole entry): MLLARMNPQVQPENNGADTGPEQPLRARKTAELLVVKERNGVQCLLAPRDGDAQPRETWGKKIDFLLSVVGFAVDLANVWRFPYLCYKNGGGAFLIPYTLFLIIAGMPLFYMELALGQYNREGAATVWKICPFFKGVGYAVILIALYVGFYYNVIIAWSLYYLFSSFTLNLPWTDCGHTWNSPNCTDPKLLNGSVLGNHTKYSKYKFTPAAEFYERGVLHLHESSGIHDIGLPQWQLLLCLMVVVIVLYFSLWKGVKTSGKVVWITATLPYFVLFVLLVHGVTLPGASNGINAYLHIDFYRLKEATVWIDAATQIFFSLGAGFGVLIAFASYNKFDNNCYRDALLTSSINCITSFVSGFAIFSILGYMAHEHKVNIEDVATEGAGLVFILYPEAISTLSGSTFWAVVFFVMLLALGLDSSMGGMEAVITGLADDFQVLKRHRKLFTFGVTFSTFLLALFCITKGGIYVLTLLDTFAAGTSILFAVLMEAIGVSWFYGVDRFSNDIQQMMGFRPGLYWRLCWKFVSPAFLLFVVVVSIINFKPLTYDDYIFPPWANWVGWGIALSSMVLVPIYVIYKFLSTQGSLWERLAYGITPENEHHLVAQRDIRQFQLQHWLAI
Assay [4] deals with carbachol-stimulated contraction of the guinea-pig ileum. The experiment in a line: Inhibition of carbachol-stimulated contraction of guinea-pig ileum.
For assay [5], the target named is T1, synaptosomal uptake of serotonin (14C-5-HT) (Homo sapiens, UniProt P31645).
T1 construct: from tissue
T1 sequence (P31645 whole entry): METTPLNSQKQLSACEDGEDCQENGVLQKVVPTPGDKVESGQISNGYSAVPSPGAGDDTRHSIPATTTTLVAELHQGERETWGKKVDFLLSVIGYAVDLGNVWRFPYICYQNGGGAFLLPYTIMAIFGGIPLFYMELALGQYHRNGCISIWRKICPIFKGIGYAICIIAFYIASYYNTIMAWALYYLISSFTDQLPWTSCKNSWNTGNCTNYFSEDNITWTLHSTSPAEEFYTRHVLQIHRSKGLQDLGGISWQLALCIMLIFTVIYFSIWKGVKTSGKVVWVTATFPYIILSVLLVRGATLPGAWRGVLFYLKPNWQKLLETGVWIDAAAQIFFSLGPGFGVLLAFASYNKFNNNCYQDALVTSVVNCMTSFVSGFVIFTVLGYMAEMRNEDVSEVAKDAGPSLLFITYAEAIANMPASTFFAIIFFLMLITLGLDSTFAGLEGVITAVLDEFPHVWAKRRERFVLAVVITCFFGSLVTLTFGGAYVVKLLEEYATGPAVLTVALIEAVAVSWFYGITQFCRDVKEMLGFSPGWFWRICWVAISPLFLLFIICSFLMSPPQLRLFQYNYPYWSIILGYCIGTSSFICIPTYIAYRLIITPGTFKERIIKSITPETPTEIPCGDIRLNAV
The experiment in a line: biochemical.

The mark [6] stands for this setting: unit inferred, read-out: inhibition constants (vs. ^3H-imipramine).
[7] abbreviates: ip, mice, n = 8 per group, 5mg/kg reserpine s.c. 18 h prior to test compound.
Setting [8] is: read-out: inhibition constant (Ki) vs. ^3H-imipramine.

The pIC50 is the negative decadic logarithm of the IC50, by convention in mol/L. High values mean a small IC50, low ones a large IC50.

The structures appear in SMILES notation. pIC50, pKi: −log10 of the molar value. Where two headings read alike, the source gives them in different places.

Regarding `CN(C)CC(c1ccc(Br)cc1)C1(O)CCCCC1` (centres unmarked) [Compound D, 1-[1-(4-bromophenyl)-2-(dimethylamino)ethyl]-cyclohexanol], the pKi in assay [1] (setting [6]) is 7.21. The minimal effective dose in assay [2] (setting [7]) worked out at 3 mg/kg. The “potency relative to Compound A in reversal of reserpine-induced hypothermia” value in assay [2] (mice) was “approximately three times as potent”.

With `CNCCCN1c2ccccc2CCc2ccccc21` [DMI, desmethyl- imipramine, reference compound], the pKi at muscarinic receptor was […]. In assay [2] (ip), the minimal effective dose was 0.4 mg/kg.

Regarding `CN(C)CC(c1ccc(Cl)c(Cl)c1)C1(O)CCCCC1` (centres unmarked) [Compound G, 1-[1-(3,4-dichlorophenyl)-2-(dimethylamino)ethyl]-cyclohexanol], the pKi in assay [1] (setting [6]) was 7.43. In assay [2] (setting [7]), the minimal effective dose was found to be 3 mg/kg. The “potency relative to Compound A in reversal of reserpine-induced hypothermia” value in assay [2] (mice) is reported as “approximately three times as potent”. Besides, the pIC50 in assay [3] is 7.15.

With `CN(C)CCCN1c2ccccc2CCc2ccccc21` [Imipramine, reference compound], on muscarinic receptor, the pKi is 7.43. For the same compound, the Kb in assay [4] (Cavia porcellus, read-out: KB against carbachol-stimulated contraction of the guinea-pig ileum) is around 0.1 µM.

In the case of `COc1ccc(C2CN(C)COC23CCCCC3)cc1` (stereo not drawn) [Compound B, 5-(4-methoxyphenyl)-3-methyl-3-aza-l-oxas^piro(5.5) undecane], in assay [1] (setting [8]), the pKi is 6.46. Also, the figures for the pIC50 in assay [5] and in assay [3] were 5.54 and 5.33, respectively. For the same compound, in assay [2] (setting [7]), the minimal effective dose was found to be 30 mg/kg. In addition, the “potency relative to Compound A in reversal of reserpine-induced hypothermia” value in assay [2] (mice) was “less potent”.

As to `CN(C)CC(c1cccc(Cl)c1)C1(O)CCCCC1` (centres unmarked) [Compound E, 1-[1-(3-chlorophenyl)-2-(dimethylamino)ethyl]-cyclohexanol], the pKi in assay [1] (read-out: inhibition constants (vs. ^3H-imipramine)) is 6.89. The minimal effective dose in assay [2] (setting [7]) turned out to be 1 mg/kg.

As to `COc1ccc(C(CN(C)C)C2(O)CCCCC2)cc1` (racemic) [Compound A, 1-[(2-dimethylamino)-1-(4-methoxyphenyl)ethyl]-cyclohexanol], the “activity against carbachol-stimulated contraction of the guinea-pig ileum” value in assay [4] (at 1 µM) is “inactive”. The minimal effective dose in assay [2] (ip) and in assay [2] (po) was 10 mg/kg in each case.

Regarding `CN(C)CC(c1cccc(Br)c1)C1(O)CCCCC1` (centres unmarked) [Compound F, 1-[1-(3-bromophenyl)-2-(dimethylamino)ethyl]-cyclohexanol], in assay [1] (setting [6]), the pKi was 7.28. Further, in assay [2] (setting [7]), the minimal effective dose was 1 mg/kg. Moreover, the “potency relative to Compound A in reversal of reserpine-induced hypothermia” value in assay [2] (mice) was “approximately ten times as potent”.

For the compound `CN(C)CC(c1ccc(Cl)cc1)C1(O)CCCCC1` (centres unmarked) [Compound C, 1-[1-(4-chlorophenyl)-2-(dimethylamino)ethyl]-cyclohexanol], the pKi in assay [1] (setting [8]) is 7.00. The pIC50 in assay [5] was 6.60; in assay [3], 6.48. In addition, the minimal effective dose in assay [2] (setting [7]) worked out at 10 mg/kg. The “potency relative to Compound A in reversal of reserpine-induced hypothermia” value in assay [2] (mice) was “approximately equipotent”.

These data come from patent EP0112669A2, “Phenethylamine derivatives and intermediates therefor” (AMERICAN HOME PRODUCTS CORPORATION, priority 1982, dated 1984).
